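1) Cells in 96-well plates. 2) Compound, 48 h, 5 concentrations. 3) Linear interpolation between surrounding doses. 4) Unreached endpoint = highest concentration. GI50: concentration for 50% inhibition of growth.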 Calls of active or inactive are those of the source. Cut-off read from the data, not from the text of the source: active = GI50 up to about 1.1 µM and inactive = higher.
How the values were obtained:
Experiment in all cases: growth of human tumour cells (NCI), 48 h
786-0 = system: 786-0
A498 = system: A498
COLO 205 = system: COLO 205
HCT-116 = system: HCT-116
HOP-62 = system: HOP-62
HT-29 = system: HT-29
Hs-578T = system: Hs-578T
LOX IMVI = system: LOX IMVI
NCI-H460 = system: NCI-H460
OVCAR-4 = system: OVCAR-4
OVCAR-5 = system: OVCAR-5
RPMI-8226 = system: RPMI-8226
SF-295 = system: SF-295
SK-MEL-28 = system: SK-MEL-28
SN12C = system: SN12C
SNB-75 = system: SNB-75
SW-620 = system: SW-620
UACC-257 = system: UACC-257
UO-31 = system: UO-31
MDA-MB-231 = system: MDA-MB-231

Measured: GI50

CC(C)(CNC(=O)/C(Cl)=C(/Cl)C(=O)O)CNC(=O)/C(Cl)=C(/Cl)C(=O)O
inactive: 786-0 > 100 µM | A498 > 100 µM | COLO 205 18.2 µM | HCT-116 36.2 µM | HOP-62 > 100 µM | HT-29 48.5 µM | Hs-578T > 100 µM | LOX IMVI 28.8 µM | NCI-H460 > 100 µM | OVCAR-4 > 100 µM | OVCAR-5 > 100 µM | RPMI-8226 22.6 µM | SF-295 > 100 µM | SK-MEL-28 > 100 µM | SN12C > 10 µM | SNB-75 > 100 µM | SW-620 40.6 µM | UACC-257 > 100 µM | UO-31 > 100 µM

Cc1ccc(C2c3c(n(C)c(=O)n(C)c3=O)OC(N(C)C)(N(C)C)C2(F)F)cc1 (configuration not stated)
inactive: 786-0 > 100 µM | A498 > 100 µM | COLO 205 > 100 µM | HCT-116 > 100 µM | HOP-62 > 100 µM | LOX IMVI > 100 µM | MDA-MB-231 > 100 µM | NCI-H460 > 100 µM | OVCAR-4 51.4 µM | OVCAR-5 > 100 µM | RPMI-8226 > 100 µM | SF-295 > 100 µM | SK-MEL-28 > 100 µM | SNB-75 > 100 µM | SW-620 > 100 µM | UACC-257 > 100 µM | UO-31 > 100 µM

COc1ccc(/N=C2\S/C(=N\C(=N\c3ccccc3)SCc3ccccc3)N(c3ccccc3)\C2=N/c2ccc(OC)cc2)cc1
inactive: 786-0 > 100 µM | COLO 205 > 100 µM | HCT-116 > 100 µM | HOP-62 > 100 µM | HT-29 > 100 µM | Hs-578T > 100 µM | MDA-MB-231 > 100 µM | RPMI-8226 > 100 µM | SK-MEL-28 62.4 µM | SN12C > 100 µM | SNB-75 > 100 µM | SW-620 > 100 µM | UACC-257 > 100 µM | UO-31 > 100 µM

CSc1nc2c(c(=O)n1C)N=C(c1ccccc1)[C@H](C(CC(=O)c1ccccc1)c1ccccc1)C(c1ccccc1)N2 (some centres not stated)
inactive: 786-0 > 100 µM | A498 > 100 µM | COLO 205 > 100 µM | HCT-116 32 µM | HOP-62 > 100 µM | HT-29 > 100 µM | LOX IMVI > 100 µM | MDA-MB-231 > 100 µM | NCI-H460 9.2 µM | OVCAR-4 23.6 µM | OVCAR-5 > 100 µM | RPMI-8226 19 µM | SF-295 > 100 µM | SK-MEL-28 > 100 µM | SN12C > 100 µM | SNB-75 3.12 µM | SW-620 26.1 µM | UACC-257 > 100 µM | UO-31 15 µM

S=C1Nc2cnc3ccccc3c2SC1c1ccccc1 (configuration not stated)
inactive: 786-0 > 100 µM | COLO 205 > 100 µM | HCT-116 > 100 µM | HOP-62 42.9 µM | HT-29 > 100 µM | Hs-578T 49.9 µM | LOX IMVI 97.5 µM | MDA-MB-231 > 100 µM | NCI-H460 > 100 µM | OVCAR-4 > 100 µM | OVCAR-5 > 100 µM | RPMI-8226 > 100 µM | SF-295 61.7 µM | SK-MEL-28 92.3 µM | SN12C > 100 µM | SNB-75 28.4 µM | UACC-257 > 100 µM | UO-31 > 100 µM

NCC(=O)N1CCN(c2nc(N3CCCC3)c3nc(Cl)c(NCc4ccccc4)nc3n2)CC1
inactive: 786-0 1.69 µM | COLO 205 1.7 µM | HCT-116 1.79 µM | HOP-62 1.56 µM | HT-29 1.91 µM | Hs-578T 2.12 µM | LOX IMVI 1.78 µM | MDA-MB-231 1.85 µM | NCI-H460 1.85 µM | OVCAR-4 2.15 µM | OVCAR-5 2.91 µM | SF-295 1.86 µM | SK-MEL-28 2.23 µM | SN12C 1.85 µM | SNB-75 1.57 µM | SW-620 2.66 µM | UACC-257 1.74 µM | UO-31 1.66 µM

CN(C(=O)C1CCCCCC1=O)c1ccccc1Cl (configuration not stated)
inactive: 786-0 > 100 µM | A498 > 100 µM | COLO 205 > 100 µM | HCT-116 > 100 µM | HOP-62 > 100 µM | HT-29 > 100 µM | LOX IMVI > 100 µM | MDA-MB-231 > 100 µM | NCI-H460 > 100 µM | OVCAR-4 > 100 µM | OVCAR-5 > 100 µM | RPMI-8226 > 100 µM | SF-295 > 100 µM | SK-MEL-28 > 100 µM | SN12C > 100 µM | SNB-75 > 100 µM | SW-620 > 100 µM | UACC-257 > 100 µM | UO-31 > 100 µM

CC(=O)Nc1ccc(C(=O)NN2C(=O)C(Cl)C2c2cc(Br)ccc2O)cc1 (configuration not stated)
inactive: 786-0 3.54 µM | COLO 205 36.1 µM | HCT-116 3.69 µM | HOP-62 2.2 µM | HT-29 9.46 µM | Hs-578T 66.1 µM | MDA-MB-231 3.6 µM | NCI-H460 3.09 µM | OVCAR-4 3.76 µM | OVCAR-5 19.2 µM | RPMI-8226 12.1 µM | SF-295 3.66 µM | SK-MEL-28 4.38 µM | SN12C 8.71 µM | SNB-75 44.4 µM | SW-620 6.21 µM | UACC-257 3.93 µM | UO-31 3.72 µM

CCC12CCCN(Cc3ccccc3)C1c1c([nH]c3ccccc13)C(C(=O)OC)C2 (configuration not stated)
inactive: 786-0 > 10 µM | COLO 205 > 10 µM | HCT-116 4.08 µM | HOP-62 > 10 µM | HT-29 6.87 µM | Hs-578T > 10 µM | LOX IMVI > 10 µM | MDA-MB-231 > 10 µM | OVCAR-4 > 10 µM | OVCAR-5 7.89 µM | RPMI-8226 > 10 µM | SF-295 > 10 µM | SK-MEL-28 > 10 µM | SN12C > 10 µM | SNB-75 > 10 µM | SW-620 > 10 µM | UACC-257 > 10 µM

CCOC(=O)C1(C(=O)OCC)[C@@H](c2ccccc2)C2=NO[C@@H]3CCC[C@H]1[C@H]23
inactive: 786-0 89.3 µM | COLO 205 29 µM | HCT-116 45.5 µM | HOP-62 43.6 µM | HT-29 45.4 µM | Hs-578T > 100 µM | LOX IMVI 81.1 µM | MDA-MB-231 > 100 µM | NCI-H460 57.7 µM | OVCAR-4 43 µM | OVCAR-5 > 100 µM | RPMI-8226 23.5 µM | SF-295 51.6 µM | SK-MEL-28 > 100 µM | SN12C > 100 µM | SNB-75 47.4 µM | SW-620 43.8 µM | UACC-257 24 µM | UO-31 53.3 µM

CC(=O)OC12C3C4C1C1C2C3C41OC(C)=O (configuration not stated)
inactive: 786-0 > 100 µM | A498 > 100 µM | COLO 205 > 100 µM | HCT-116 > 100 µM | HOP-62 > 100 µM | HT-29 > 100 µM | LOX IMVI > 100 µM | MDA-MB-231 > 100 µM | NCI-H460 > 100 µM | OVCAR-4 > 100 µM | OVCAR-5 > 100 µM | RPMI-8226 > 100 µM | SF-295 > 100 µM | SK-MEL-28 > 100 µM | SN12C > 100 µM | SNB-75 > 100 µM | SW-620 > 100 µM | UACC-257 > 100 µM | UO-31 > 100 µM

From ChEMBL document CHEMBL1201862, “PubChem BioAssay data set” (2004)
